Measured values taken from patent US7727736B2, “Soluble phospholipids for use in clotting factor assays” (The University of North Carolina at Chapel Hill, priority 2003, dated 2010).

Legend:
[1] = biological target: T1, factor Xa binding to factor Va2 (Homo sapiens, UniProt P00742+P12259); assay: Prothrombinase assembly monitored by initial rate of thrombin formation (DAPA fluorescence, stopped flow), FVa2; type: biochemical; conditions: in presence of 400 μM C6PS
T1 construct: Human prothrombin and factor Xa; tissue Hematologic Technologies Inc. (factor Xa only); factor Xa purchased
Experimental: The initial rate of thrombin formation was monitored by DAPA fluorescence. Stopped flow fluorescence measurements were performed at 37° C. with final mixing chamber concentrations of 1 μM prothrombin, 5 μM DAPA, 1 nM factor Xa, 400 μM C6PS and various concentrations of factor Va2 (Panel A) or Va1 (Panel B) in 50 mM Tris-HCl (pH 7.5), 150 mM NaCl, 5 mM CaCl2. The initial rates were fit to a single binding site model as described herein to determine the Kd^eff of factor Xa binding to factor Va2 in presence of 400 μM C6PS (2.4±0.3 nM). […] The abrupt appearance of aggregates at 700 μM C6PS defines the critical micelle concentration under these experimental conditions.
Fluorescence Stopped-Flow Measurements. The rates of thrombin formation from either MzIIa or Pre2 (with equimolar fragment 1.2), or of thrombin plus MzIIa formation from human prothrombin, were estimated from the time-dependent fluorescence change of DAPA bound to the activation products. […] The calculation of rates from measurements of initial fluorescence intensity (F0) and intensity at the completion of the reaction (F∞) is well-established (Nesheim and Mann (1983) supra; Wu, et al. (2002) supra).
Initial rates of prothrombin activation by FXa as monitored by DAPA fluorescence are shown in FIG. 2 as a function of added FVa2 (Panel A) and FVa1 (Panel B) in the presence of 400 μM C6PS. […]

[2] = biological target: T2, factor VIII (Homo sapiens, UniProt P00451); assay: Chromogenic FVIII assay; type: biochemical; conditions: normal pooled plasma (100% factor VIII), varying C6PS
T2 construct: using normal pooled plasma (100% factor VIII); from tissue; host or cells: normal pooled plasma
Experimental: For the chromogenic […], a standard curve was prepared by diluting normal pooled plasma (which had 1 U/mL […] according to the certification sheets) into […] to give levels of 100% factor VIII, 75%, 50%, 25%, and 10% along with the factor VIII deficient plasma, which has 0% factor VIII.
Two mixtures were prepared. Mixture #1 consisted of thrombin—3 nM, factor IXa—3 nM, factor X—7.2 μg/mL, calcium—12 mM in a buffer of 20 mM Tris (pH 7.9), 150 mM NaCl. Also included in Mixture #1 were either lipid vesicles (lipid unilamellar vesicles; “LUV”)—20 μM or C6PS—2,625 μM. Mixture #2 consisted of hirudin—60 nM and Pefachrome FXa—1.8 mM in a buffer of 20 mM Tris (pH 7.9), 150 mM NaCl.
Factor VIII levels were assayed by adding 25 μL plasma to 2000 μL of buffer. 50 μL of the diluted plasma, 100 μL Mixture #1, and […] were incubated at 37° C. for 3 minutes. […] Finally, 50 μL of Mixture #2 was added to diluted plasma+Mixture #1 and the reaction was monitored at 405 nm for 5 minutes. The rate is the change in absorbance between 30 seconds and 120 seconds expressed as mOD/minute. […]
The effect of varying C6PS levels was also monitored as described above using normal pooled plasma (100% factor VIII), except that the concentration of C6PS in Mixture #1 was varied by serial dilution into buffer before being added to the final Mixture #1.

T1 sequence (P00742 41-179 limits assumed): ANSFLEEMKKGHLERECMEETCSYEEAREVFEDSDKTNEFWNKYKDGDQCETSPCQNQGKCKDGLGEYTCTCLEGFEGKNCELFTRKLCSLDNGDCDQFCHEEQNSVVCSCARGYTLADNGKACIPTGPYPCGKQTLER
T1 sequence (P00742 235-488 limits assumed): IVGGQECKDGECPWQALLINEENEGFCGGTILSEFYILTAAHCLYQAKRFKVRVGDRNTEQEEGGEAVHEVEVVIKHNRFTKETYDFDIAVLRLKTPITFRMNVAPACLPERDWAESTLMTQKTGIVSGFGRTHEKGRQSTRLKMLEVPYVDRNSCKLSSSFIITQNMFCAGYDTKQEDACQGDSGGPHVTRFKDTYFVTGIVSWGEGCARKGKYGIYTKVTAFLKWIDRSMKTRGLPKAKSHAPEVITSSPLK
T1 sequence (P12259 29-737 limits assumed): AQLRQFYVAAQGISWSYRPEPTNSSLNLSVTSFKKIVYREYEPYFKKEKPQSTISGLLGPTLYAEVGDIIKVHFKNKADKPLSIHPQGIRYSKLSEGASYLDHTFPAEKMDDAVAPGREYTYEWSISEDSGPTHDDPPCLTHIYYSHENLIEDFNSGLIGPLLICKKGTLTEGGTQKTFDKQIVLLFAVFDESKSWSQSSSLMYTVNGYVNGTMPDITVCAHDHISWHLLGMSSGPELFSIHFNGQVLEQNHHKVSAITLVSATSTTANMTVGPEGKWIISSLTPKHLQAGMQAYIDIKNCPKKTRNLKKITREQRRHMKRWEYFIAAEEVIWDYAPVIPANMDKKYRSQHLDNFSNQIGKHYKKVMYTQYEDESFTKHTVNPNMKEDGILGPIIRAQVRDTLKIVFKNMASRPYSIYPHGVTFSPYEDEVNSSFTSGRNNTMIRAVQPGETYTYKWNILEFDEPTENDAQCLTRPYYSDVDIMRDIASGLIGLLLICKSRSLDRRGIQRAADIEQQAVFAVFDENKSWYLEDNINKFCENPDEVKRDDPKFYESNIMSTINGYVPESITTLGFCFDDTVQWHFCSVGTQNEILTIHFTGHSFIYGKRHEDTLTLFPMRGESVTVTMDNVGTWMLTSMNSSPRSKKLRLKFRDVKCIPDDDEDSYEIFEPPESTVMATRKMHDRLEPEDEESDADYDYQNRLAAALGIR
T1 sequence (P12259 1574-2224 limits assumed): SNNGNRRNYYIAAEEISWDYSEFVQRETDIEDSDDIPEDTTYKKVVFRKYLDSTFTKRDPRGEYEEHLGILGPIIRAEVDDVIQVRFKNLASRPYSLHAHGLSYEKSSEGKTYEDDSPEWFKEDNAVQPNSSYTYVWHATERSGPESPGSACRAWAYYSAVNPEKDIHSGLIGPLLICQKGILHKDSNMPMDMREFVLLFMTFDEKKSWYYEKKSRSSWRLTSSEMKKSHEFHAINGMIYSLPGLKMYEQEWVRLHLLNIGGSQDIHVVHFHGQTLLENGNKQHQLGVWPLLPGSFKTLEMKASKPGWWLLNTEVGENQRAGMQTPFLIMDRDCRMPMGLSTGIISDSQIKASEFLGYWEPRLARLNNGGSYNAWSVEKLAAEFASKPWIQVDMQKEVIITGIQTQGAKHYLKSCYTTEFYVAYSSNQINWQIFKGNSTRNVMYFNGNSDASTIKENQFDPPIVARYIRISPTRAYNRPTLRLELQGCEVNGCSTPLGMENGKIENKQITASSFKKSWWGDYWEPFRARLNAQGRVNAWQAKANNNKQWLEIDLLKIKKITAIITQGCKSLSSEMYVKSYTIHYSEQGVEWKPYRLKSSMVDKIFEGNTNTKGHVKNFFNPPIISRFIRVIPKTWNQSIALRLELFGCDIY
T2 sequence (P00451 20-391 limits assumed): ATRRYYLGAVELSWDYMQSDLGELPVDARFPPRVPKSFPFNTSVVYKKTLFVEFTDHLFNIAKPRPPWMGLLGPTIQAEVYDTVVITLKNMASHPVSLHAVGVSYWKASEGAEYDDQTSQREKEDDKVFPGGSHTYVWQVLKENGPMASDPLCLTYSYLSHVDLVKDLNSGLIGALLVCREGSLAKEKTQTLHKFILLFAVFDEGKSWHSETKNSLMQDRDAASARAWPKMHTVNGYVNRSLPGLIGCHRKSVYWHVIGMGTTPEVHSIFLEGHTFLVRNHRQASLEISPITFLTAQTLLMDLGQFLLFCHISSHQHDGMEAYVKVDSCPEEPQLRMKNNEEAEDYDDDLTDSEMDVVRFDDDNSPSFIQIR
T2 sequence (P00451 392-759 limits assumed): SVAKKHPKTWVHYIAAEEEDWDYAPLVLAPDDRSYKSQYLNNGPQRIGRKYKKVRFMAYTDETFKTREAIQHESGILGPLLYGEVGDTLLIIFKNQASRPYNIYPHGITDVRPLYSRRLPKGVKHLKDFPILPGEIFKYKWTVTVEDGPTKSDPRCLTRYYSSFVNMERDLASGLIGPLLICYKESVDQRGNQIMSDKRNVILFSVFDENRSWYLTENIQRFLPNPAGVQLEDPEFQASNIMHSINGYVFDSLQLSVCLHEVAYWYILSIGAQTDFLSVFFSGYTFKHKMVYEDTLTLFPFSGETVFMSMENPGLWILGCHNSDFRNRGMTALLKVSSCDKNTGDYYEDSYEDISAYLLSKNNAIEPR
T2 sequence (P00451 1709-2351 limits assumed): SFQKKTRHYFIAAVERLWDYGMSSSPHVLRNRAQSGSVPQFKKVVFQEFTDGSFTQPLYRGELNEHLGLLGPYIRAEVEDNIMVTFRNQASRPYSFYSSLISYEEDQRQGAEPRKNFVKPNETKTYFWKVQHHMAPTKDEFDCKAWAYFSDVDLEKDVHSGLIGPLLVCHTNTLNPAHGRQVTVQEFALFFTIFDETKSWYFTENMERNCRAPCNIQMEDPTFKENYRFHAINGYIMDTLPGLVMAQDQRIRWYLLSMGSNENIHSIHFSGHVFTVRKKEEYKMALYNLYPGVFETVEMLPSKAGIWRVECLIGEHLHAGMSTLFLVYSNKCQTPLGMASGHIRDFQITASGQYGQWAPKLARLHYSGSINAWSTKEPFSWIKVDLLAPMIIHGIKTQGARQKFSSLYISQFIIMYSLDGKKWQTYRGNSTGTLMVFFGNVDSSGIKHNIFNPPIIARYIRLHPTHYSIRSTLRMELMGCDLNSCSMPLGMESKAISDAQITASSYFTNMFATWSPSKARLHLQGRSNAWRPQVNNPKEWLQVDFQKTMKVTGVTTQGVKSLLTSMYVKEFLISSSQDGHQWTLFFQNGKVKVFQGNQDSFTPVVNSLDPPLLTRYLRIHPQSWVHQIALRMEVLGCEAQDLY
T2 sequence (P00740 47-191 partner limits assumed): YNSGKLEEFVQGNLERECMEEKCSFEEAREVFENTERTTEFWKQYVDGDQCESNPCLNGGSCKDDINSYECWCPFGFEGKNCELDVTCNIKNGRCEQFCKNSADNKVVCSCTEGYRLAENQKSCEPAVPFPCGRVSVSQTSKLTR
T2 sequence (P00740 227-461 partner limits assumed): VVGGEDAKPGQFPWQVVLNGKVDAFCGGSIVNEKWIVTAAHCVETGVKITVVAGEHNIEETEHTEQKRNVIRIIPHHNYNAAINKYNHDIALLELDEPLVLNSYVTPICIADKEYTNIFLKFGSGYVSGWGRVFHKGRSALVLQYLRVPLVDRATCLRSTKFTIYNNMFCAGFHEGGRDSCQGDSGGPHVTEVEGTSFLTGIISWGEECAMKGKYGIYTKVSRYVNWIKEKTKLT

Structure (SMILES): CCCCCC(=O)OC[C@H](COP(=O)(O)OC[C@H](N)C(=O)O)OC(=O)CCCCC [C6PS, 1,2-dicaproyl-sn-glycero-3-phospho-L-serine]
- fold tighter FVa2 interaction with FXa than FVa1 [1]: at least 300 fold
- rate in FVIII chromogenic assay versus C6PS concentration [2]: saturated
